What was measured:
DHX33 protein = target: T1, DHX33 protein (Mus musculus, UniProt Q80VY9); assay: Inhibition of the helicase activity of DHX33 protein in vitro; format: biochemical; settings: recombinant DHX33 protein, compound 1-1000 nM, 37° C., 60 minutes; read-out: IC50 (inhibitory effects of the compounds on the helicase activity of DHX33 protein)
T1 construct: purified full-length DHX33 protein; made in house; host or cells: E. coli BL-21pLysS (DE3)
T1 sequence (Q80VY9 1-698): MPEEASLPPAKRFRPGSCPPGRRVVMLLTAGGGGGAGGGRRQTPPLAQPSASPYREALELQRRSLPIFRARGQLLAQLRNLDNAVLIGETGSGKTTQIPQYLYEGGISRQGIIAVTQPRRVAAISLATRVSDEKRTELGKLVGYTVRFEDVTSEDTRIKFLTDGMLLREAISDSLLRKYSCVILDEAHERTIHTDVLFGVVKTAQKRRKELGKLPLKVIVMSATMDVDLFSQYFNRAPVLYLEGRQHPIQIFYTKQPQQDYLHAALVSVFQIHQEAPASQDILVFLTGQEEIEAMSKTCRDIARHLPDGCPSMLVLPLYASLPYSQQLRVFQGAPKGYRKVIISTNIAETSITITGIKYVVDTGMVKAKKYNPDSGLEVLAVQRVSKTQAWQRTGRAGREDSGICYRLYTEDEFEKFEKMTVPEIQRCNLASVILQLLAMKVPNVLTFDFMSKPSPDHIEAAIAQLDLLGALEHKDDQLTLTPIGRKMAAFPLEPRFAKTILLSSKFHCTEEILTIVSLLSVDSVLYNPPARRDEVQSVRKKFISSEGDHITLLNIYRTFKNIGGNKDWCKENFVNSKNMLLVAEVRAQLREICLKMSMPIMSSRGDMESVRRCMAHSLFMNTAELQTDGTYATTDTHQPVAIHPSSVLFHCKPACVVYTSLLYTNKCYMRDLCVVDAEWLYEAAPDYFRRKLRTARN
Protocol: Biochemistry. 2019:58 (4):250-8. RNA helicase gene (mouse DHX33 gene) was cloned into a pET32M-3C vector (between BamH I/Not I restriction sites). Afterward, the plasmid was transformed into BL-21pLysS (DE3) E. coli. 0.5 mM isopropyl 1-thio-βp-D-galactopyranoside (IPTG) was added, and the expression of the recombinant protein was induced at 16° C. for 16 hours. Cells were allowed to precipitate and were resuspended in a cell lysis buffer [50 mM Tris-HCl (pH7.2), 150 mM NaCl, 1% Triton X-100, and 50 mM imidazole supplemented with a protease inhibitor]. Thereafter, cells were subjected to ultrasonic treatment and centrifuged at a rotation speed of 13000 rpm for 25 minutes. The supernatant was incubated with the nickel-nitrilotriacetic acid beads equilibrated in Tris buffer, followed by sufficient washing. Thereafter, the purified protein was eluted with a solution of 300 mM imidazole in Tris buffer, and was then subjected to dialysis against an imidazole-free Tris buffer at 4° C. overnight.
The components involved in the reaction for testing the helicase activity were added to a 96-well opaque white plate. The method was outlined as follows. The 96-well plate was coated with neutravidin at a final concentration of 10 μg/mL (100 μl/well) overnight at 4° C. Afterwards, the neutravidin-coated plate was blocked with 100 μL of 0.1% (w/v) BSA (dissolved in normal PBS) at 22° C. for 2 hours. After washing, a DNA duplex (2.5 ng) that was resulted from the annealing of two single-stranded DNA oligonucleotides (the sequence of one single strand was biotin-labeled 5′-[…]-3′; and the sequence of the other single strand was DIG-labeled 5′-[…]-3′) [the annealing reaction was carried out in PBS (pH 7.0) containing 1M NaCl] was added, and the resulting mixture was incubated at 22° C. for 4 hours. After the addition of 90 μL of the reaction mixture, the helicase reaction was initiated [0.25 pig of purified full-length DHX33 protein, dissolved in 25 mM 4-MOPS (pH 7.0), 5 mM ATP 2 mM DTT, 3 mM MnCl2 and 100 μg/mL BSA]. The reaction was conducted at 37° C. for 60 minutes. After being washed, each well was incubated with a blocking solution [10% (w/v) BSA in 0.1 M maleic acid and 0.15 M NaCl (pH 7.5)] for 30 minutes, and was then incubated with 20 μL of antibody solution (anti-DIG-AP, Roche, in blocking buffer) for 30 minutes. After being washed with 100 μL of detection buffer [0.1 M Tris-HCl and 0.1 M NaCl (pH 9.5)], each well was added with 1 μL of chemiluminescent substrate (CSPD-0.25 mM), and the plate was incubated at 17° C. for 5 minutes. Afterwards, the plate was patted dry and incubated at 37° C. for 30 minutes. The remaining DIG-AP marker control in each well was counted for 10 minutes by a luminescence multi-well plate reader (Enspire, PerkinElmer). Higher reading indicated weaker helicase activity.
Positive control and negative controls were set for this acticity assay. Among them, one negative control group, which differed from the experimental group only in that the former was not added with ATP (other conditions were the same as the experimental group), was used for the comparison with the experimental group; another negative control group, which differed from the experimental group only in that the former was not added with DHX33 protein (other conditions were the same as the experimental group), was used for the comparison with the experimental group. The positive control group was set for the comparison with the wild-type DHX33 protein (standard substance).
Biochemistry. 2019:58 (4):250-8.
Compounds having a series of concentration (the concentrations were set at 1 nM, 5 nM, 10 nM, 20 nM, 50 nM, 100 nM, 250 nM, 500 nM, and 1000 nM) were used to conduct the helicase activity assay of […] protein in vitro. The half-maximal inhibitory concentrations of the compounds of the present disclosure on the helicase activity of […] protein were as shown in Table 1.

U251-MG cells = assay: Half-maximal cell-inhibitory concentration on U251-MG cells (CCK-8); format: cell-based; settings: Homo sapiens, U-251, U251-MG cells (DHX33-overexpressing cancer cell strain), 48 hours, read-out: IC50 (half-maximal inhibitory concentrations of compounds on U251-MG cells)
In short: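 […]-overexpressing glioma cells seeded at 1×10^4 cells/well, exposed to compound from 5 nM to 20 μM for 48 hours at 37° C, 5% CO2. Viability read by CCK-8 after 2 hours (OD 450 nm); IC50 from inhibition curves, three repeats.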

Structure (SMILES) | IC50 (DHX33 protein) [nM] | IC50 (U251-MG cells) [nM]
Cc1sc(-n2c(C)cc(/C=C(\C#N)c3nc4ccccc4[nH]3)c2C)c(C#N)c1C [AB24264, (E)-2-(3-(2-(1-(1-H-benzo[d]imidazol-2-yl]-2-cyanovinyl])-2,5-dimethyl-1H-pyrrol-1-yl)-4,5-dimethylthiophene-3-carbonitrile] | 100 to 400 | 1000 to 5000
COc1ccc2nc(/C(C#N)=C/c3cc(C)n(-c4sc(C)cc4C#N)c3C)[nH]c2c1 [AB24321] | < 20 | 100 to 1000
Cc1oc(-n2c(C)cc(/C=C(\C#N)c3nc4ccc(C(F)(F)F)cc4[nH]3)c2C)c(C#N)c1C [AB24243, (E)-2-(3-(2-cyano-2-(6-(trifluoromethyl)-1H-benzo[d]imidazol-2-yl)vinyl)-2,5-dimethyl-1H-pyrrol-1-yl)-4,5-dimethylfuran-3-carbonitrile] | 100 to 400 | 1000 to 5000
COc1ccn2c(c1)nc1cc(-c3cc(C)n(-c4sc(C)cc4C#N)c3C)ccc12 [AB24379, 2-(3-(3-methoxybenzo[4,5]imidazo[1,2-a]pyridin-7-yl)-2,5-dimethyl-1H-pyrrol-1-yl)-5-methylthiophene-3-carbonitrile] | 20 to 100 | 1000 to 5000

The remaining lines, values ahead:

IC50 (DHX33 protein) [nM] | IC50 (U251-MG cells) [nM] | Structure (SMILES)
400 to 1000 | 5000 to 20000 | COc1cc2nc(/C(C#N)=C/c3cnc(-c4ccccc4)n3C)[nH]c2cn1 [AB29511, (E)-2-(6-methoxy-3H-imidazo[4,5-c]pyridin-2-yl)-3-(1-methyl-2-phenyl-1H-imidazol-5-yl)acrylonitrile]
20 to 100 | 100 to 1000 | COc1ccc2nc(/C(C#N)=C/c3cc(C)n(-c4oc(C)c(C)c4C#N)c3C)[nH]c2c1 [AB24202, (E)-2-(3-(2-cyano-2-(6-methoxy-1H-benzo[d]imidazol-2-yl)vinyl)-2,5-dimethyl-1H-pyrrol-1-yl)-4,5-dimethylfuran-3-carbonitrile]
100 to 400 | 5000 to 20000 | Cc1oc(-n2c(C)cc(/C=C(\C#N)c3nc4ccncc4[nH]3)c2C)c(C#N)c1C [AB24249]

From patent publication US20230146233A1, “A CLASS OF POLYCYCLIC COMPOUNDS INHIBITING RNA HELICASE DHX33 AND THE APPLICATION THEREOF” (Shenzhen KeYe Life Technologies, Co., Ltd, priority 2020, published 2023)
